We go through 37 compounds from patent US8546414B2, “Ion channel modulators and methods of use” (Vertex Pharmaceuticals Incorporated, priority 2004, dated 2013).

Common to all, as to assay type: cell-based
One test concerns the target T1, CaV2.2 (Homo sapiens, UniProt Q00975).
T1 construct: expressed in transfected cells; host or cells: HEK293
The experiment in a line: VIPR optical membrane potential assay with electrical stimulation, CaV2.2. Particulars: Table 9, CaV 2.2 receptors. The procedure, abridged: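 HEK293 cells stably expressing CaV2.2 stained with CC2-DMPE/DiSBAC2(3) voltage-sensitive dyes (10 μM final CC2-DMPE, 30 min, RT), then compound added and cells electrically stimulated for 3-5 s. Read-out: background-subtracted 460/580 nm emission ratio; response R=Rf/Ri (post- vs pre-stimulus ratio); antagonism seen as reduced response.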

Another test has as its target T2, NaV1.3 (Homo sapiens, UniProt Q9NY46).
T2 construct: expressed in transfected cells; host or cells: HEK293
The experiment in a line: VIPR optical membrane potential assay with electrical stimulation, NaV1.3. Particulars: Table 9, NaV 1.3 receptors. In short, it runs like this: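 HEK293 cells stably expressing NaV1.3, stained with CC2-DMPE (10 μM final) then DiSBAC2(3) with ABSC1, 30 min each at RT; compounds added with oxonol. Electrical stimulation for 3 s; 460/580 nm background-subtracted emission ratio Rf/Ri, normalised to tetracaine (positive) and untreated (negative) controls.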

The next test deals with NaV1.8 (Homo sapiens, UniProt Q9Y5Y9). The experiment in a line: VIPR optical membrane potential assay, NaV1.8 (other subtypes in an analogous mode). Particulars: Table 9, NaV 1.8 receptors. As to the method:
Antagonist properties of test compounds were assessed as follows. Cells expressing the NaV of interest were placed into microtiter plates. After an incubation period, the cells were stained with fluorescent dyes sensitive to the transmembrane potential. The test compounds were added to the microtiter plate. The cells were stimulated with either chemical or electrical means to evoke a NaV dependent membrane potential change from unblocked channels, which was detected and measured with trans-membrane potential-sensitive dyes. Antagonists were detected as a decreased membrane potential response to the stimulus.
24 hours before the assay on VIPR, CHO cells endogenously expressing a NaV 1.2 type voltage-gated NaV are seeded in 96-well poly-lysine coated plates at 60,000 cells per well. […] Plates are incubated in the dark for 30 minutes at room temperature. • 4) While the cells are being stained with coumarin, a […] oxonol solution in BS#2 is prepared. […] As before, the residual volume should be 40 μL. • 6) Upon removing the bath, the cells are loaded with 80 μL of the DiSBAC2(3) solution, after which test compound, dissolved in DMSO, is added to achieve the desired test concentration to each well from the drug addition plate and mixed thoroughly. The volume in the well should be roughly 121 μL. The cells are then incubated for 20-30 minutes. • 7) Once the incubation is complete, the cells are ready to be assayed on VIPR® with a sodium addback protocol. 120 μL of Bath solution #1 is added to stimulate the NaV dependent depolarization. […] tetracaine was used as an antagonist positive control for block of the NaV channel. Analysis of VIPR® Data:
The following is an example of how NaV1.3 inhibition activity is measured using the optical membrane potential method#2. Other subtypes are performed in an analogous mode in a cell line expressing the NaV of interest.

T1 sequence (Q00975 whole entry): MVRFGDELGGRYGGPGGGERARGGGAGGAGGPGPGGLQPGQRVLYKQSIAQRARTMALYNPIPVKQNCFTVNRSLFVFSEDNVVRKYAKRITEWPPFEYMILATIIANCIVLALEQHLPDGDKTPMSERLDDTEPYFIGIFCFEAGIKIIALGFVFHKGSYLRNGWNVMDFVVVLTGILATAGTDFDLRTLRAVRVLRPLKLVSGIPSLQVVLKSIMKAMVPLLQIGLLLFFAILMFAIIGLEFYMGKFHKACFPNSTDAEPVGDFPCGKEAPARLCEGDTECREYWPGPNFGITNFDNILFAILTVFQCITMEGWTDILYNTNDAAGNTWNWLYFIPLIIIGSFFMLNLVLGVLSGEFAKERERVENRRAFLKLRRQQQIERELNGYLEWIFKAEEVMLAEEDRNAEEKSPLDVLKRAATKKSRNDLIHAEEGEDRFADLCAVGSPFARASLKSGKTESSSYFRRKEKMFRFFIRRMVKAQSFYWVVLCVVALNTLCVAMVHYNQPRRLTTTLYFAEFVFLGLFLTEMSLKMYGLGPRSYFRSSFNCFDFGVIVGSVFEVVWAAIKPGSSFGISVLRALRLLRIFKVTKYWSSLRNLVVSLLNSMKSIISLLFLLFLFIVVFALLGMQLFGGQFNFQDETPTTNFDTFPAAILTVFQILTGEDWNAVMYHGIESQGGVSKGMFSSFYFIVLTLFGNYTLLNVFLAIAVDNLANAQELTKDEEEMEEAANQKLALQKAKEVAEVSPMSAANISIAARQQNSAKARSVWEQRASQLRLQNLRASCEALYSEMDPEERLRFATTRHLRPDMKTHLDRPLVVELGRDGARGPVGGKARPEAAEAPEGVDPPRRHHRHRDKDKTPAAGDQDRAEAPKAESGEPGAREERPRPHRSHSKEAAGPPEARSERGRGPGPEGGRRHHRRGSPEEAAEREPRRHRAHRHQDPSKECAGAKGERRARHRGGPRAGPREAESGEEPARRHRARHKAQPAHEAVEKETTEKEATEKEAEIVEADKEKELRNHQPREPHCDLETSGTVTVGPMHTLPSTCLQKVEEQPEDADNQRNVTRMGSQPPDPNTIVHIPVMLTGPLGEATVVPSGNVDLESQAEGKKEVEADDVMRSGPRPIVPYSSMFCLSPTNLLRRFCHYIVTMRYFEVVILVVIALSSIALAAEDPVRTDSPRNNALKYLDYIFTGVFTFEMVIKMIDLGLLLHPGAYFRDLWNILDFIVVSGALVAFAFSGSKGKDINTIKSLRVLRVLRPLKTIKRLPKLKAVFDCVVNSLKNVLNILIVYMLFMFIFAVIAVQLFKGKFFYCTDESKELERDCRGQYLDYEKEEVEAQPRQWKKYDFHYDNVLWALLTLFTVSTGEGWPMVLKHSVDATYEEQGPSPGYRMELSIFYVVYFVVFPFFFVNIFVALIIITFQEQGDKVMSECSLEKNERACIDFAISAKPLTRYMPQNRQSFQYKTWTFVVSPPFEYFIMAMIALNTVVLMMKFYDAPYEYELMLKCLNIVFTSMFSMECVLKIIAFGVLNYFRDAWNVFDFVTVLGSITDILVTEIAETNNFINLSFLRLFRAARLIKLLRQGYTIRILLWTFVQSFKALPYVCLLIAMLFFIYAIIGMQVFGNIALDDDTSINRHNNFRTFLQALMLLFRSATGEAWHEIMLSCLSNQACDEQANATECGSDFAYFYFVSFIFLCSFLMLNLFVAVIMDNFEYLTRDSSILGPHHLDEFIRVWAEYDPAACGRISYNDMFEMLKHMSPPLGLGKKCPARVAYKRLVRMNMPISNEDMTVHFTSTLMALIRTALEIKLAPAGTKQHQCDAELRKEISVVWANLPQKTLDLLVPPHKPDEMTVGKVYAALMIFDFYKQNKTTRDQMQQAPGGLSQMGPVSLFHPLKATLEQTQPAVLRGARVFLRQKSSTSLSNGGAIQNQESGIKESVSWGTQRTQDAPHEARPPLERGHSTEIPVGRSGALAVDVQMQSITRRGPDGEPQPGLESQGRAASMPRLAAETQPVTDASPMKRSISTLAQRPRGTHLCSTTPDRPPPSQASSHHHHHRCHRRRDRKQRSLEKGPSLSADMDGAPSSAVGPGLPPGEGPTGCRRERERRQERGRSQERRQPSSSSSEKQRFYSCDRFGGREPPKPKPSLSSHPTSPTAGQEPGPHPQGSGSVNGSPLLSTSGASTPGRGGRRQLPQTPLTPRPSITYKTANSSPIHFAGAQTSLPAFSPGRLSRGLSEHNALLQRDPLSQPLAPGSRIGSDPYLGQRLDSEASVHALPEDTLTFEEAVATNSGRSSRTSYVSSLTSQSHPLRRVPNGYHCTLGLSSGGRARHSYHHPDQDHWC
T1 sequence (P54284 whole entry partner): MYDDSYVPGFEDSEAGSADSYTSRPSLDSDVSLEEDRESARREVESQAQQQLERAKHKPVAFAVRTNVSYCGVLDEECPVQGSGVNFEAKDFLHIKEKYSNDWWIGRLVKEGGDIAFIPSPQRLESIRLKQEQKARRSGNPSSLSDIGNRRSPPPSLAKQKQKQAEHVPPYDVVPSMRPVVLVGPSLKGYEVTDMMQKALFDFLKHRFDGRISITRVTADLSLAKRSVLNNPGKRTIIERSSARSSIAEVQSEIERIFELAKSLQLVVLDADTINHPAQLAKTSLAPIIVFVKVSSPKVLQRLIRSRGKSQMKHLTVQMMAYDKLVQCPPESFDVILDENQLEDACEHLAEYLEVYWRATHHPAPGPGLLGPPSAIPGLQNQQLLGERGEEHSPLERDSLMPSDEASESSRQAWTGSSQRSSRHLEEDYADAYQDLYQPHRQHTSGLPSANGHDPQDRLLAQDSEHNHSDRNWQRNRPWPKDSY
T1 sequence (P54289 25-956 partner limits assumed): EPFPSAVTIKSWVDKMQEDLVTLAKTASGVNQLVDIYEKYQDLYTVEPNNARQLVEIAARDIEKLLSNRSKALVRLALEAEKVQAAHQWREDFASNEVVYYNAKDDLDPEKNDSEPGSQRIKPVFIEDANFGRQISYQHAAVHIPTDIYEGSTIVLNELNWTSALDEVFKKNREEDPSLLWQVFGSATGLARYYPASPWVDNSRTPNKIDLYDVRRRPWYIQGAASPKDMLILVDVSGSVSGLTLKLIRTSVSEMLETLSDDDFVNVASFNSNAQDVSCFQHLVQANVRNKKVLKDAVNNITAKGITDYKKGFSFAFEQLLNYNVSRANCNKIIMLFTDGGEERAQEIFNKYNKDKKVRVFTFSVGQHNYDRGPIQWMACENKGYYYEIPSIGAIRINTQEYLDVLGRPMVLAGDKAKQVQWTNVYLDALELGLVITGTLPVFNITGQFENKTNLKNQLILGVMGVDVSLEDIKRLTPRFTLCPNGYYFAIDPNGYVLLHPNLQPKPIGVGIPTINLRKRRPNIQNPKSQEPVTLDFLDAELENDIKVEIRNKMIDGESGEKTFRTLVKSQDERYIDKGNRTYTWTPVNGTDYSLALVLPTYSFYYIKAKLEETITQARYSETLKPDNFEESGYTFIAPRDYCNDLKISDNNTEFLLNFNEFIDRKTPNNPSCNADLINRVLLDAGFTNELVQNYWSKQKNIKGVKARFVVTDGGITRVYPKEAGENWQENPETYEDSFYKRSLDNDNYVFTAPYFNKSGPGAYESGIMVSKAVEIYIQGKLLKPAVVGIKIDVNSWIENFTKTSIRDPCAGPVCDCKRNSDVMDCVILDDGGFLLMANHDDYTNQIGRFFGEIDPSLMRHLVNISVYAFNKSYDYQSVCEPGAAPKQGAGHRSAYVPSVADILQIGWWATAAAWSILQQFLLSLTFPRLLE
T1 sequence (P54289 957-1103 partner limits assumed): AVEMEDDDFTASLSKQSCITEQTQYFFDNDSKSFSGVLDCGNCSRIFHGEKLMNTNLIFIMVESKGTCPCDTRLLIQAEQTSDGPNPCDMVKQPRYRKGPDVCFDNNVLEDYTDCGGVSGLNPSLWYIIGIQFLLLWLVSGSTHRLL

In the case of `O=C(c1cnc(N2CCOCC2)nc1-c1ccccc1F)N(Cc1ccccc1)C1CCC1` [compound 26], the half-inhibitory concentration (IC50) on CaV2.2 is 2 to 10 µM; against NaV1.3, 2 to 10 µM; against NaV1.8, more than 10 µM.
On to `CC(C)N(C(=O)c1cnc(N2CCCCC2)nc1-c1ccccc1F)c1ccc2c(c1)OCCO2` [compound 171], for which the half-maximal inhibitory concentration (IC50) is 2 to 10 µM on CaV2.2, 2 to 10 µM at NaV1.3 and more than 10 µM on NaV1.8.
Consider `COc1ccc(CN(C(=O)c2cnc(N3CCOCC3)nc2-c2ccccc2F)C2CC2)cc1` [compound 142], for which the IC50 against CaV2.2, against NaV1.3 and at NaV1.8 was less than 2 µM throughout.
For `CC(C)N(Cc1ccccc1)C(=O)c1cnc(Nc2cccc(Cl)c2)nc1-c1ccccc1F` [compound 177], the 50% inhibitory concentration (IC50) at CaV2.2, on NaV1.3 and against NaV1.8 was more than 10 µM in each case.
Take `O=C(c1cnc(N2CCOCC2)nc1-c1ccccc1F)N1CC=C(c2ccccc2)CC1` [compound 91]: the IC50 against CaV2.2, on NaV1.3 and against NaV1.8 was more than 10 µM in each case.
In the case of `COc1cccc(N(C(=O)c2cnc(N3CCOCC3)nc2-c2ccccc2F)C2CCC2)c1` [compound 190], the IC50 against CaV2.2 was more than 10 µM; against NaV1.3, 2 to 10 µM; against NaV1.8 it was more than 10 µM.
For `O=C(c1cnc(N2CCOCC2)nc1-c1ccccc1F)N(Cc1ccccc1)C1CCCCC1` [compound 64], the IC50 on CaV2.2 is 2 to 10 µM; against NaV1.3, 2 to 10 µM; at NaV1.8 it was more than 10 µM.
`CC(C)N(Cc1ccccc1)C(=O)c1cnc(N2CCN(C)CC2)nc1-c1ccccc1F` [compound 167]: the IC50 on CaV2.2, against NaV1.3 and against NaV1.8 was more than 10 µM each time.
With `CC(C)N(Cc1ccccc1)C(=O)c1cnc(N2CCOCC2)nc1-c1cccc(/C=C/C(=O)O)c1` [compound 17], the half-inhibitory concentration (IC50) against CaV2.2, against NaV1.3 and against NaV1.8 was more than 10 µM throughout.
On to `CCCN(CC1CC1)c1ncc(C(=O)N(Cc2cccc(OC)c2)C(C)C)c(-c2ccccc2F)n1` [compound 4], for which the half-maximal inhibitory concentration (IC50) is less than 2 µM on CaV2.2, 2 to 10 µM at NaV1.3 and 2 to 10 µM against NaV1.8.
Turning to `CC(C)N(Cc1ccccc1)C(=O)c1cnc(Nc2cccc(C(N)=O)c2)nc1-c1ccccc1F` [compound 73], the IC50 at CaV2.2, at NaV1.3 and at NaV1.8 was more than 10 µM in each case.
In the case of `COc1cccc(N(C(=O)c2cnc(N3CCCCC3)nc2-c2ccccc2Cl)C2CCCCC2)c1` [compound 115], the half-inhibitory concentration (IC50) is 2 to 10 µM against CaV2.2, more than 10 µM on NaV1.3 and more than 10 µM at NaV1.8.
On to `CC(C)(C)c1ccc(CN(C(=O)c2cnc(N3CCSCC3)nc2-c2ccccc2F)C2CC2)cc1` [compound 2], for which the half-maximal inhibitory concentration (IC50) against CaV2.2 was 2 to 10 µM; against NaV1.3, more than 10 µM; against NaV1.8, more than 10 µM.
On to `O=C(c1cnc(N2CCSCC2)nc1-c1ccccc1F)N(Cc1ccc(F)cc1)C1CC1` [compound 48], for which the half-inhibitory concentration (IC50) is 2 to 10 µM at CaV2.2, 2 to 10 µM at NaV1.3 and more than 10 µM at NaV1.8.
For `CC(C)N(C(=O)c1cnc(N2CCCCC2)nc1-c1ccccc1F)c1cccc(O)c1` [compound 66], the 50% inhibitory concentration (IC50) was 2 to 10 µM on CaV2.2, more than 10 µM against NaV1.3 and more than 10 µM on NaV1.8.
In the case of `COc1cccc(CN(C(=O)c2cnc(N3CCCCC3)nc2-c2ccccc2F)C(C)C)c1` [compound 20, 4-(2-fluorophenyl)-N-isopropyl-N-(3-methoxybenzyl)-2-(piperidin-1-yl)pyrimidine-5-carboxamide], the IC50 is less than 2 µM against CaV2.2, 2 to 10 µM on NaV1.3 and 2 to 10 µM against NaV1.8.
As to `CC(C)N(C(=O)c1cnc(N2CCC3CCCCC3C2)nc1-c1ccccc1F)c1ccc2c(c1)OCCO2` (stereo not drawn) [compound 151], the results for the IC50 on CaV2.2, on NaV1.3 and against NaV1.8 were 2 to 10 µM, 2 to 10 µM and more than 10 µM, respectively.
Turning to `COc1ccc(CN(C(=O)c2cnc(N3CCN(C)CC3)nc2-c2ccccc2F)C2CC2)cc1` [compound 193], the IC50 against CaV2.2, against NaV1.3 and against NaV1.8 was more than 10 µM each time.
Turning to `COc1cccc(CN(C(=O)c2cnc(N3CCSCC3)nc2-c2ccccc2F)C(C)C)c1` [compound 131], the IC50 at CaV2.2 was less than 2 µM; at NaV1.3 it was 2 to 10 µM; against NaV1.8, 2 to 10 µM.
For `CN1CCN(c2ncc(C(=O)N(Cc3ccccc3)C3CC3)c(-c3ccccc3F)n2)CC1` [compound 129], the IC50 against CaV2.2, on NaV1.3 and against NaV1.8 was more than 10 µM each time.
On to `COc1cccc(OC)c1-c1nc(N2CCOCC2)ncc1C(=O)N(Cc1ccccc1)C(C)C` [compound 89], for which the IC50 against CaV2.2, at NaV1.3 and on NaV1.8 was more than 10 µM in each case.
Turning to `CC1CCc2ccccc2N1C(=O)c1cnc(N2CCOCC2)nc1-c1ccccc1F` (stereo not drawn) [compound 52], the half-inhibitory concentration (IC50) on CaV2.2 is 2 to 10 µM; on NaV1.3 it was 2 to 10 µM; against NaV1.8 it was more than 10 µM.
Regarding `O=C(c1cnc(N2CCOCC2)nc1-c1ccccc1F)N(Cc1ccc(C(F)(F)F)cc1)C1CC1` [compound 124], the IC50 against CaV2.2 was 2 to 10 µM; against NaV1.3 it was 2 to 10 µM; at NaV1.8 it was more than 10 µM.
As to `COc1cccc(N(C(=O)c2cnc(N3CCOCC3)nc2-c2ccccc2F)C2CCCC2)c1` [compound 169], the figures for the concentration for half-maximal inhibition (IC50) at CaV2.2, on NaV1.3 and against NaV1.8 were more than 10 µM, 2 to 10 µM and more than 10 µM, respectively.
As for `O=C(c1cnc(N2CCOCC2)nc1-c1ccccc1F)N(Cc1ccccc1)C1CC1` [compound 100], the 50% inhibitory concentration (IC50) was 2 to 10 µM at CaV2.2, 2 to 10 µM on NaV1.3 and more than 10 µM on NaV1.8.
Take `O=C(NC(CN1CCCC1)c1ccccc1)c1cnc(N2CCOCC2)nc1-c1ccccc1F` (stereo not drawn) [compound 37]: the IC50 at CaV2.2, at NaV1.3 and on NaV1.8 was more than 10 µM each time.
`Cc1nc(N2CCOCC2)nc(-c2ccccc2F)c1C(=O)N(Cc1ccc(F)cc1)C1CC1` [compound 9]: the half-maximal inhibitory concentration (IC50) on CaV2.2 was 2 to 10 µM; against NaV1.3 it was 2 to 10 µM; against NaV1.8, more than 10 µM.
For the compound `O=C(c1cnc(N2CCSCC2)nc1-c1ccccc1F)N(Cc1cccc(-c2ccncc2)c1)C1CC1` [compound 204], the figures for the half-maximal inhibitory concentration (IC50) at CaV2.2, on NaV1.3 and against NaV1.8 were 2 to 10 µM, 2 to 10 µM and more than 10 µM, respectively.
With `COc1cccc(CN(C(=O)c2cnc(N3Cc4ccccc4C3)nc2-c2ccccc2F)C(C)C)c1` [compound 134], the IC50 against CaV2.2 was less than 2 µM; on NaV1.3, 2 to 10 µM; on NaV1.8 it was more than 10 µM.
With `COc1cccc(N(C(=O)c2cnc(N3CCC4CCCCC4C3)nc2-c2ccccc2F)C2CC2)c1` (stereo not drawn) [compound 189], the IC50 against CaV2.2 was 2 to 10 µM; against NaV1.3 it was more than 10 µM; against NaV1.8, more than 10 µM.
With `COc1cccc(CN(C(=O)c2cnc(N3CCCCC3)nc2-c2ccccc2Cl)C(C)C)c1` [compound 55], the 50% inhibitory concentration (IC50) at CaV2.2, at NaV1.3 and at NaV1.8 was 2 to 10 µM each time.
Consider `COc1cccc(N(C(=O)c2cnc(N3CCCCC3)nc2-c2ccccc2Cl)C2CCCC2)c1` [compound 8], for which the IC50 against CaV2.2 is 2 to 10 µM; against NaV1.3, 2 to 10 µM; against NaV1.8, more than 10 µM.
Regarding `CC(C)N(Cc1ccccc1)C(=O)c1cnc(NCC(=O)O)nc1-c1ccccc1F` [compound 153], the IC50 against CaV2.2, at NaV1.3 and against NaV1.8 was more than 10 µM in each case.
As for `CC1CN(c2ncc(C(=O)N(Cc3ccccc3)C(C)C)c(-c3ccccc3F)n2)CC(C)O1` (stereo not drawn) [compound 69], the concentration for half-maximal inhibition (IC50) against CaV2.2 is 2 to 10 µM; on NaV1.3 it was more than 10 µM; on NaV1.8, more than 10 µM.
For `COc1cccc(CN(C(=O)c2cnc(N3CCC4CCCCC4C3)nc2-c2ccccc2F)C(C)C)c1` (stereo not drawn) [compound 162], the IC50 was less than 2 µM at CaV2.2, less than 2 µM against NaV1.3 and more than 10 µM on NaV1.8.
Regarding `O=C(c1cnc(N2CCCCC2)nc1-c1ccccc1F)N(Cc1cccc(-c2ccncc2)c1)C1CC1` [compound 14], the IC50 is 2 to 10 µM on CaV2.2, more than 10 µM at NaV1.3 and more than 10 µM at NaV1.8.
For `O=C(c1cnc(N2CCC3CCCCC3C2)nc1-c1ccccc1F)N(Cc1cccc(-c2ccncc2)c1)C1CC1` (stereo not drawn) [compound 114], the concentration for half-maximal inhibition (IC50) against CaV2.2 was less than 2 µM; on NaV1.3, more than 10 µM; against NaV1.8, more than 10 µM.
